# Results as given in patent publication US20250127774A1, “COMPOUNDS FOR LABELLING NUCLEIC ACID AND USES THEREOF” (THE ROYAL INSTITUTION FOR THE ADVANCEMENT OF …, priority 2022, published 2025).
# pIC50: −log10 of the molar value. Read-outs that look alike come from different tables or passages of the source.
# What was measured:
# H1299 cells = assay: FACS cell cycle analysis; assay type: cell-based, human; conditions: H1299, 48 h and 72 h after the initial treatment
# Description: 5-VdU and PINK combinatory impact on the cell cycle. FACS analysis of H1299 cells treated with 5-VdU/PINK whos that the cell cycle progression is severely impacted upon combinatory treatment. […] (see FIG. 26). Percentage of H1299 cells undergoing apoptosis was indicated by staining with Apotracker™ Green, induced after treatment with 1 μM 5-VdU and 10 μM PINK for different time points. H1299 cells were seeded at a density of 20% and treated with 5-VdU and PINK in the indicated concentrations. One day after the last treatment, the medium was exchanged. The cells were then stained with the Apotracker™ Green dye and Hoechst. Images were taken 72h after the first treatment. (C) H1299 cells were treated with 1 μM 5-VdU for 24 h and subsequently with 5 μM PINK for another 24 h.
# MV4-11 cells [1] = assay: Resazurin Chou-Talalay optimized toxicity assay; assay type: cell-based, human; conditions: MV4-11, Fa 0.25-0.35 (25% to 35% of cells killed)
# Description: (§1) Lastly to determine how synergistic the combination of VdU with PINK is in the three leukemia cell lines, another resazurin reduction assay was conducted where VdU and PINK were maintained at a constant 5:1 ratio. The data generated from this resazurin assay were analyzed using the synergy model developed by Chou and Talalay 30, which is based on the median effect dose (IC50) and the slope of the drug response curve, as shown in equation II: […]
# (§2) The model allows to quantitatively measure the synergy of drug combinations, by generating a combination index (CI).^30 A CI below 1 indicates a synergistic interaction which means that the effect of the drug combination is greater than the effect of both drugs alone combined.^30A CI equal to 1 indicates an additive interaction which means that the effect of the drug combination is equal to the effect of both drugs alone combined.^30 A CI above 1 indicates an antagonistic interaction which means that the effect of the drug combination is less than the effect of both alone combined. […] Where a DRI above 1 is a favorable dose reduction and a DRI below 1 is an unfavorable dose reduction.^30
# Resazurin Chou-Talalay optimized toxicity assay. […] The cells were treated with resazurin, incubated and measured, as described above. The data was processed and analysed in the CompuSyn program used for running Chou-Talalay synergy analyses.^33
# Jurkat cells [2] = assay: Resazurin Chou-Talalay optimized toxicity assay; assay type: cell-based; conditions: Homo sapiens, Fa 0.50 (50% cells killed), read-out: Concentration of compound alone required at Fa
# Description: as §1, §2
# (§3) Resazurin Chou-Talalay optimized toxicity assay. MV4-11, MOLM-13 and Jurkat cells were seeded in 96-well plates at a density of 20 000 cells/well, 25 000 cells/well and 30 000 cells/well, respectively, in triplicates. The cells were first treated with VdU diluted in fresh media in 1:4 serial dilutions (˜0.01% DMSO) at concentrations of 500-0 μM alone and in combination, and incubated overnight. 24h post nucleoside addition, the cells were treated with PINK diluted in fresh media in 1:4 serial dilutions (˜1% DMSO) at concentrations of 100-0 μM alone or in combination, and incubated for 72 h. […] The cells were treated with resazurin, incubated and measured, as described above. The data was processed and analysed in the CompuSyn program used for running Chou-Talalay synergy analyses.^33
# MOLM-13 cells = assay: Resazurin Chou-Talalay optimized toxicity assay; assay type: cell-based; conditions: Homo sapiens; MOLM-13, Fa 0.50 (50% cells killed); read-out: Concentration of compound alone required at Fa
# Description: as §1, §2, §3
# MV4-11 and Jurkat = assay: Resazurin single toxicity assay, summary over both cell lines; assay type: cell-based; conditions: Homo sapiens, after 24 h and 72h, read-out: IC50 summarised over both cell lines
# Description: (§4) Resazurin assays were carried out to test the effectiveness of VdU, VdA and PINK alone in MV4-11 and Jurkat. The resazurin reduction assay is a colorimetric assay which allows to determine a cell's viability based on its metabolic activities.^26 When the cells are alive, the resazurin gets reduced by NADH into its resorufin form by cellular respiration, which is pink and highly fluorescent.^26 When the cells are dead or their metabolisms are impaired, the resazurin remains in its oxidized form, which is blue and has low fluorescence.^26 The cells can then be imaged using a spectrometer to determine how viable they are after each treatment.
# Overall, VdU presented itself as a good candidate for the combination therapy with PINK due to its low toxicity in the two leukemia cell lines.
# (§5) Resazurin Single toxicity assay. MV4-11 and Jurkat cells were seeded in 96-well plates at a density of 20 000 cells/well, in triplicates. The cells were treated with each nucleoside (VdU/VdA) alone diluted in fresh media in 1:4 serial dilutions (˜0.01% DMSO) at concentrations of 1000-0 μM. The cells were treated with PINK alone diluted in fresh media in 1:2 serial dilutions (˜1% DMSO) at concentration of 100-0 μM. The cells were then incubated for 24 h and 72h. 10 μL of 870 μM resazurin was added per well, and incubated for 2-5 hours. After incubation, the fluorescence intensity at 590 nm (excitation=560 nm) was measured using a SpectraMax M5 plate reader.
# Jurkat cells [3] = assay: Resazurin single toxicity assay; assay type: cell-based; conditions: Homo sapiens, compound alone
# Description: as §4, §5
# MV4-11 cells [4] = assay: Resazurin single toxicity assay; assay type: cell-based; conditions: Homo sapiens, compound alone
# Description: as §4, §5
# [5] = 24 h incubation, read-out: IC50 value (24 h)
# [6] = 72 h incubation, read-out: IC50 value (72 h)
# [7] = MV4-11, 24 h incubation, read-out: IC50 value (24 h)
# [8] = MV4-11, 72 h incubation, read-out: IC50 value (72 h)
SMILES,cell cycle profile (time course) (H1299 cells),Concentration of compound alone required at Fa (MV4-11 cells [1]),pIC50 (Jurkat cells [2]),pIC50 (MOLM-13 cells),pIC50 (MV4-11 and Jurkat),pIC50 (Jurkat cells [3]; [5]),pIC50 (Jurkat cells [3]; [6]),pIC50 (MV4-11 cells [4]; [7]),pIC50 (MV4-11 cells [4]; [8])
Cc1nnc(-c2ccc3cc4ccc(N(C)C)cc4nc3c2)nn1 [PINK],mostly unperturbed cell cycle profiles,3.2 µM,5.96,5.92,~5.30,5.15,5.36,5.24,5.21
"C=Cc1cn([C@H]2C[C@H](O)[C@@H](CO)O2)c(=O)[nH]c1=O [VdU, 5-vinyl-2′-deoxyuridine]",mostly unperturbed cell cycle profiles,59 µM,5.43,5.38,< 3.00,< 3.00,4.28,< 3.00,< 3.00
